What was measured:
[1] = biological target: T1, carnation-derived glycosyltransferase (SEQ ID NO: 1), recombinant crude enzyme liquid (Dianthus caryophyllus, UniProt E3W9M2); experiment: Glycosyl transfer reaction with carnation-derived glycosyltransferase gene expressed in Escherichia coli; assay type: biochemical; details: E. coli crude enzyme liquid, cyanidin-3-O-β-glucoside, pH 5.6, 30° C., 3 hours
T1 construct: the enzyme comprising 502 amino acid residues was translated, followed by amino acid removal via processing; added initiator methionine (one Met placed before the processed N-terminus SEFDRL...) (N); made in house; host or cells: Escherichia coli JM109 (crude lysate supernatant)
T1 sequence (E3W9M2 31-502): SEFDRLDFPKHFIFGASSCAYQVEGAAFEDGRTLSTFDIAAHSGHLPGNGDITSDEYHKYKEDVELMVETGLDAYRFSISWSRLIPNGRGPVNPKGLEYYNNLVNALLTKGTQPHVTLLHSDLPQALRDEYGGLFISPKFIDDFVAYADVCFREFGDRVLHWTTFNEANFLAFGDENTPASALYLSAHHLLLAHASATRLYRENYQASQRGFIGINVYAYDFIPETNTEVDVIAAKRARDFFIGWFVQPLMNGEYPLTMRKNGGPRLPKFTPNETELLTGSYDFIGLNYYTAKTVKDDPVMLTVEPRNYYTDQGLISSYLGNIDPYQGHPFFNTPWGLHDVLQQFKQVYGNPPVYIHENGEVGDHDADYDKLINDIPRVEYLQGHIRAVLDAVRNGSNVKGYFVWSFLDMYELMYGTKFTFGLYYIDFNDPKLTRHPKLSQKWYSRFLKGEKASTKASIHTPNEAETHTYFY
Procedure: The PCR product was ligated to a pTrcHis2-TOPO vector (Invitrogen) using a pTrcHis2-TOPO TA expression Kit (Invitrogen), followed by transformation of the Escherichia coli JM109 strain. DNA was extracted from the transformed Escherichia coli and the DNA nucleotide sequence was analyzed in the above manner. Accordingly, the direction of cDNA introduction and the nonoccurrence of a PCR-induced nucleotide substitution were confirmed.
The transformed Escherichia coli was seeded on an LB medium containing […] ampicillin (5 ml), followed by shake culture at 30° C. for 4 hours. Then, IPTG was added thereto to result in 1 mM, followed by shake culture at 16° C. for 2 hours. The cultured Escherichia coli was harvested via centrifugation at 1,800×g. The medium was removed therefrom. A 0.1 M citric acid buffer (pH 5.6) (150 μl) was added thereto, followed by sufficient mixing. The resultant was repeatedly subjected to ultrasonication on ice 3 times for 10 seconds (output: 4; duty: 70) using a ultrasonic disintegrator (UD-201, TOMY SEIKO Co., Ltd., Tokyo, Japan), followed by centrifugation at 20,000×g. The supernatant was transferred to a new centrifuge tube and designated as a crude enzyme liquid. […]

[2] = biological target: T2, enzyme purified from pink petals of a carnation (variety: "Beam Cherry") (glycosyltransferase) (Dianthus caryophyllus, UniProt E3W9M2); experiment: Relative activity of glycosyltransferase purified from carnation on each sugar donor (HPLC); assay type: biochemical; details: purified enzyme 135 ng, cyanidin 3-glucoside 200 μM, sugar donor 500 μM, citric acid buffer pH 5.6, 30° C., 15 minutes; HPLC area of cyanidin 3,5-O-β-diglucoside
T2 construct: the enzyme comprising 502 amino acid residues was translated, followed by amino acid removal via processing; from tissue; host or cells: petals of carnation, variety Beam Cherry
T2 sequence (E3W9M2 31-502): T1 sequence (E3W9M2 31-502)
Procedure: An enzyme reaction was carried out at 30° C. for 15 minutes using an enzyme (135 ng) purified from pink petals of a carnation (variety: “Beam Cherry”) by the method described in Example 2 ((1) and (2)), cyanidin 3-glucoside (200 μM), and a sugar donor (1-O-β-D-vanillyl glucose or any of 1-O-β-D-p-coumaryl glucose, 1-O-β-D-caffeyl glucose, 1-O-β-D-feruloyl glucose, and 1-O-β-D-sinapoyl glucose that had been enzymatically synthesized according to the method described in Matsuba Y et al., Plant Biotechnology vol. 25, No. 4 (2008) pp. 369-375) (500 μM) in a reaction solution adjusted to 30 μl with the addition of a citric acid buffer (pH 5.6). A 20% phosphoric acid aqueous solution was added to the reaction liquid so as to result in a final phosphoric acid concentration of 1%. Thus, the reaction was terminated, followed by centrifugation. The resulting supernatant was subjected to separation using a HPLC column (Chromolith SpeedROD, 4.6×50 mm, Merck), eluent A (a 1.5% phosphoric acid aqueous solution), and eluent B (a 90% methanol aqueous solution) with a linear gradient of 18% to 28% liquid B (flow rate: 3.0 ml/min, 520 nm) (5 minutes), followed by analysis. The relative activity of the enzyme on each sugar donor was determined by calculating the area of the reaction product (cyanidin 3,5-O-β-diglucoside) on an HPLC chromatogram at a wavelength of 505 nm.

`COc1cc(C(=O)OC2OC(CO)C(O)C(O)C2O)ccc1O` (centres unmarked) was tested, and the “Sugar donor function with recombinant carnation-derived glycosyltransferase (reaction product by HPLC)” value [1] was “Generation of cyanidin 3,5-O-β-diglucoside was confirmed” and the “Relative activity of an enzyme on a sugar donor (when synthetic 1-O-β-vanillyl glucose is set as 100)” value [2] was 100.

From patent US8722868B2, “Glycosyltransferase, novel glycosyltransferase gene, and novel sugar donor compound” (National University Corporation Tokyo University of …, priority 2009, dated 2014)
